According to patent publication US11530208B2, “Imidazo[4,5-C]pyridine derived SSAO inhibitors” (PROXIMAGEN, LLC, priority 2014, dated 2022):

Tests used:
[1] = molecular target: human SSAO (Homo sapiens (Human), UniProt Q16853); assay: SSAO enzyme inhibition assay; assay type: biochemical; conditions: purified recombinantly expressed human SSAO, benzylamine substrate, RT
Protocol: All primary assays were performed at RT. with purified recombinantly expressed human SSAO. Enzyme was prepared essentially as described in Öhman et al. (Protein Expression and Purification 46 (2006) 321-331). In addition, secondary- and selectivity assays were performed using SSAO prepared from various tissues or purified rat recombinant SSAO. The enzyme activity was assayed with benzylamine as substrate by measuring either benzaldehyde production, using ^14C-labeled substrate, or by utilizing the production of hydrogen peroxide in a horseradish peroxidase (HRP) coupled reaction. Briefly, test compounds were dissolved in dimethyl sulfoxide (DMSO) to a concentration of 10 mM. Dose-response measurements were assayed by either creating 1:10 serial dilutions in DMSO to produce a 7 point curve or by making 1:3 serial dilutions in DMSO to produce 11 point curves. The top concentrations were adjusted depending on the potency of the compounds and subsequent dilution in reaction buffer yielded a final DMSO concentration ≤2%.
In a horseradish peroxidase (HRP) coupled reaction, hydrogen peroxide oxidation of 10-acetyl-3,7-dihydroxyphenoxazine produced resorufin, which is a highly fluorescent compound (Zhout and Panchuk-Voloshina. Analytical Biochemistry 253 (1997) 169-174; Amplex® Red Hydrogen Peroxide/peroxidase Assay kit, Invitrogen A22188). Enzyme and compounds in 50 mM sodium phosphate, pH 7.4 were set to pre-incubate in flat-bottomed microtiter plates for approximately 15 min before initiating the reaction by addition of a mixture of HRP, benzylamine and Amplex reagent. Benzylamine concentration was fixed at a concentration corresponding to the Michaelis constant, determined using standard procedures. Fluorescence intensity was then measured at several time points during 1-2 h, exciting at 544 nm and reading the emission at 590 nm. For the human SSAO assay final concentrations of the reagents in the assay wells were: SSAO enzyme 1 ug/mL, benzylamine 100 uM, Amplex reagent 20 uM, HRP 0.1 U/mL and varying concentrations of test compound. The inhibition was measured as % decrease of the signal compared to a control without inhibitor (only diluted DMSO). The background signal from a sample containing no SSAO enzyme was subtracted from all data points. Data was fitted to a four parameter logistic model and IC50 values were calculated using the GraphPad Prism 4 or XLfit 4 programs.
SSAO activity was assayed using 14C-labeled benzylamine and analysed by measuring radioactive benzaldehyde. In a white 96-well optiplate (Packard), 20 uL of diluted test compound was pre-incubated at RT with 20 uL SSAO enzyme for approximately 15 min with continuous agitation. All dilutions were made with PBS. The reaction was initiated by adding 20 uL of the benzylamine substrate solution containing [7-14C] Benzylamine hydrochloride (CFA589, GE Healthcare). The plate was incubated for 1 h as above after which the reaction was stopped by acidification (10 uL 1M aq HCl). Then 90 uL Micro Scint-E solution (Perkin-Elmer) was added to each well and the plate was continuously mixed for 15 min. Phase separation occurred instantly and activity was read in a Topcount scintillation counter (Perkin-Elmer). In the final reaction well, the human recombinant SSAO concentration was 10 ug/mL. In order to optimize sensitivity, the substrate concentration was decreased as compared to the HRP coupled assay in order to get a higher fraction of radioactive product. In the human SSAO assay, benzylamine concentration was 40 uM (0.2 uCi/mL). Data was analysed as above.

[2] = molecular target: human ether a go-go related gene (hERG) K+ channel (Homo sapiens (Human), UniProt Q12809); assay: hERG assay, IonWorks patch clamp electrophysiology; assay type: cell-based; conditions: Chinese Hamster Lung cell line stably expressing hERG, max concentration 11 uM
Chain of human ether a go-go related gene (hERG) K+ channel (Q12809 whole entry): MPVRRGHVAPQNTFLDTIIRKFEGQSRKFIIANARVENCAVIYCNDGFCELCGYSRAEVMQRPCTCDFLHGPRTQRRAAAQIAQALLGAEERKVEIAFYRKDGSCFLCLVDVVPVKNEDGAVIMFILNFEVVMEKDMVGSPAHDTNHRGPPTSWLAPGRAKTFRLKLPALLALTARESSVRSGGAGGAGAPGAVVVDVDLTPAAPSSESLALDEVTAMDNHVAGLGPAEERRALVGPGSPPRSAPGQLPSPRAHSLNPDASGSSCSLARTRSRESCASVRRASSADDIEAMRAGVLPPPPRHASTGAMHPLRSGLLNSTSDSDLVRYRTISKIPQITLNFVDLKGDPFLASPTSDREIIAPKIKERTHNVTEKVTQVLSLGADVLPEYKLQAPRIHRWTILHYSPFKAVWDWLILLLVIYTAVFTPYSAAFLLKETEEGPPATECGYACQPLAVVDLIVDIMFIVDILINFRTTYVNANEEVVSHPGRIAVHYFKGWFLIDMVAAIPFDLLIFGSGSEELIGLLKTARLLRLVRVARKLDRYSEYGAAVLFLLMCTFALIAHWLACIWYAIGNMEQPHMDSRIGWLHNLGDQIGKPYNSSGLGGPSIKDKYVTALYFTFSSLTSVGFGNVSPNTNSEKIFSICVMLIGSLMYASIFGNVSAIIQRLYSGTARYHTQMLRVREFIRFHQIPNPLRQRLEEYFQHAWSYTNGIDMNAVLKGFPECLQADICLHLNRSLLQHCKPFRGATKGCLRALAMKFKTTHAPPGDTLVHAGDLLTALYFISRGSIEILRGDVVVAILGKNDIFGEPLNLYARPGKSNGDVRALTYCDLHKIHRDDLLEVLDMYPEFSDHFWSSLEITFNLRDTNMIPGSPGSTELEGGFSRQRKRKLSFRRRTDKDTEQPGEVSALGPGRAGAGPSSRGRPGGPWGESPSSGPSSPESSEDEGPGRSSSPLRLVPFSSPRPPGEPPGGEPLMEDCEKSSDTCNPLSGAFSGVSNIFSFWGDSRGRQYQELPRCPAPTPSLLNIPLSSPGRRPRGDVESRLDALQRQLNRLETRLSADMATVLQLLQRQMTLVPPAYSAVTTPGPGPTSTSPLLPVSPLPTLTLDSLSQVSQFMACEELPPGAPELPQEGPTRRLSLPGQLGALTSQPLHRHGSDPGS
Protocol: Compounds of the invention were tested for inhibition of the human ether a go-go related gene (hERG) K^+ channel using IonWorks patch clamp electrophysiology. 8 Point concentration-response curves were generated on two occasions using 3-fold serial dilutions from the maximum assay concentration (11 uM). Electrophysiological recordings were made from a Chinese Hamster Lung cell line stably expressing the full length hERG channel. Single cell ion currents were measured in the perforated patch clamp configuration (100 ug/mL amphoterocin) at RT using an IonWorks Quattro instrument. The internal solution contained 140 mM KCl, 1 mM MgCl2, 1 mM EGTA and 20 mM HEPES and was buffered to pH 7.3. The external solution contained 138 mM NaCl, 2.7 mM KCl, 0.9 mM CaCl2, 0.5 mM MgCl2, 8 mM Na2HPO4 and 1.5 mM KH2PO4, and was buffered to pH 7.3. Cells were clamped at a holding potential of […] for 30 s and then stepped to +40 mV for 1 s. This was followed by a hyperpolarising step of 1 s to […] to evoke the hERG tail current. This sequence was repeated 5 times at a frequency of 0.25 Hz. Currents were measured from the tail step at the 5th pulse, and referenced to the holding current. Compounds were incubated for 6-7 min prior to a second measurement of the hERG signal using an identical pulse train. A minimum of 17 cells were required for each pIC50 curve fit. […]

Chain of human SSAO (Q16853 29-763): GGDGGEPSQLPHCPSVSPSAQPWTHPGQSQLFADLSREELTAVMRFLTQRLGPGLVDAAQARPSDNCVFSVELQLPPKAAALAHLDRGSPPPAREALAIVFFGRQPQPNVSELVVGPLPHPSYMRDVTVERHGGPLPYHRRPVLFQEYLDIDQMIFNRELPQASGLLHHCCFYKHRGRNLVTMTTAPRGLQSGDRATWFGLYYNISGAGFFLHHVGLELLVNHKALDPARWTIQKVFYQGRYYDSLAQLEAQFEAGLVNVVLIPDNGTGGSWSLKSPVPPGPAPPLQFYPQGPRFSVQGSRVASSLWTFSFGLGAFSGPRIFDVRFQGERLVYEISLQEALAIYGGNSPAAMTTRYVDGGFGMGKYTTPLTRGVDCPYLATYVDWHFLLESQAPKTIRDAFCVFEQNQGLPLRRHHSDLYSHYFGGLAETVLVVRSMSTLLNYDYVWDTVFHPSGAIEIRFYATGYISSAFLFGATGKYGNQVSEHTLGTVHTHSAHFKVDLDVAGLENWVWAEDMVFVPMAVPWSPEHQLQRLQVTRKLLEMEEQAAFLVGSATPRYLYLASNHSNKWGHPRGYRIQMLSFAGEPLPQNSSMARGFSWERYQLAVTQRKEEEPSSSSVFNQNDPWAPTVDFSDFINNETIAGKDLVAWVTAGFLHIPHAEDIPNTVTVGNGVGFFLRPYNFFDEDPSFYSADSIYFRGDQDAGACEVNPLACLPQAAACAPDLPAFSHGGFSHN

Compound	IC50 [1] [nM]	IC50 [2] [nM]
Clc1ccc(-n2c(CCCn3ccnc3)nc3ccncc32)cc1 [Example 8, 1-{3-[3-(4-chlorophenyl)-3H-imidazo[4,5-c]pyridin-2-yl]propyl}-1H-imidazole]	200 to 500	
Clc1ccc(-n2c(Cc3cccnc3)nc3ccncc32)cc1 [Example 7, 3-{[3-(4-Chlorophenyl)-3H-imidazo[4,5-c]pyridin-2-yl]methyl}pyridine; bis(formic acid)]	200 to 500	
O=C1Cc2cc(-c3nc4ccncc4n3-c3ccc(F)cc3)ccc2N1 [Example 1, 5-[3-(4-Fluorophenyl)-3H-imidazo[4,5-c]pyridin-2-yl]-2,3-dihydro-1H-indol-2-one]	50 to 200	
O=c1cc(N2CCC(c3nc4ccncc4n3-c3ccc(Cl)cc3)CC2)nc[nH]1 [Example 6, 6-{4-[3-(4-Chlorophenyl)-3H-imidazo[4,5-c]pyridin-2-yl]piperidin-1-yl}-3,4-dihydropyrimidin-4-one]	200 to 500	
O=C(NCC1CCOCC1)c1nc2ccncc2n1-c1ccc(F)cc1 [Example 9, 3-(4-Fluorophenyl)-N-(oxan-4-ylmethyl)-3H-imidazo[4,5-c]pyridine-2-carboxamide]	200 to 500	
CC(C)(O)CNc1ncc(-c2nc3ccncc3n2-c2ccc(F)cc2)cn1 [Example 3, 1-({5-[3-(4-Fluorophenyl)-3H-imidazo[4,5-c]pyridin-2-yl]pyrimidin-2-yl}amino)-2-methylpropan-2-ol]	< 50	> 10000
Cc1ccc(-n2c(-c3cnc(NCC(C)(C)O)nc3)nc3ccncc32)cc1 [Example 4, 2-Methyl-1-({5-[3-(4-methylphenyl)-3H-imidazo[4,5-c]pyridin-2-yl]pyrimidin-2-yl}amino)propan-2-ol]	< 50	
Clc1ccc(-n2c(C3CCN(c4ccncc4)CC3)nc3ccncc32)cc1 [Example 5, 4-{4-[3-(4-Chlorophenyl)-3H-imidazo[4,5-c]pyridin-2-yl]piperidin-1-yl}pyridine; bis(formic acid)]	< 50	10 to 1000
Fc1ccc(-n2c(-c3ccc4nc[nH]c4c3)nc3ccncc32)cc1 [Example 2, 5-[3-(4-Fluorophenyl)-3H-imidazo[4,5-c]pyridin-2-yl]-1H-1,3-benzodiazole]	200 to 500	
